The values that follow come from patent US11266170B2, “Sweetener and flavor compositions, methods of making and methods of use thereof” (EPC Natural Products Co., Ltd., priority 2018, dated 2022).

Residues, ends and D or L forms follow the SMILES beside them.

B1: Miraculin (protein, UniProt P13087 30-220, looked up)
Miraculin: DSAPNPVLDIDGEKLRTGTNYYIVPVLRDHGGGLTVSATTPNGTFVCPPRVVQTRKEVDHDRPLAFFPENPKEDVVRVSTDLNINFSAFMPCRWTSSTVWRLDKYDESTGQYFVTIGGVKGNPGPETISSWFKIEEFCGSGFYKLVFCPTVCGSCKVKCGDVGIYIDQKGRRRLALSDKPFAFEFNKTVYF

The test system of the first test is 3 persons. Description: Sensory analysis of odor/smell, color and taste of reacted samples (Examples 55-62). Type of test: in vivo. To be noted: Example 57, before reaction; 10 ml KH2PO4, pH 7.8. Here is the method: The reaction partners were dissolved in water and then warmed glycerin (60° C.) was added. […]
The taste test was performed as in Example 38.
All samples were assessed at 22° C. after the Maillard reaction was stopped by placing the sealed vials in an ice bath. After 20 minutes in the ice bath the sealed vials were put in a water bath set to 22° C.
The odor/smell was assessed independently by 3 persons; the final description was agreed after discussion. […] The taste was assessed independently by 3 persons either in the original samples or after appropriate dilution to achieve relevant concentrations of sugars and steviol-glycosides (i.e. 5-9% SE); the final description was agreed after discussion.
On to `OC[C@H]1OC(O)[C@H](O)[C@@H](O)[C@@H]1O` (some centres unmarked) [9 mg Glucose], for which the Smell result is on record as “neutral” and the Taste result is given as “Sweet”.

Still in this test, the particulars now being: negative controls (no carbohydrate source); 10 ml glycerin/water 9:1, 100 °C, 40 minutes.
For the molecule `C[C@H](N)C(=O)O` [8.91 mg Ala], the Smell entry is reported as “Neutral, slightly Agar” and the Taste result is “Slightly sweet”.

As to `N[C@@H](CO)C(=O)O` [10.5 mg Ser], the Smell result is on record as “Lotus flower” and the Taste result is “Slightly sweet”.

As for `O=C(O)[C@@H]1CCCN1` [11.5 mg Pro], the Taste result is “Slightly sweet”.

Consider `C[C@@H](O)[C@H](N)C(=O)O` [11.91 mg Thr], for which the Smell entry is listed as “Vanilla, butter” and the Taste entry was “Slightly sweet”.

In the case of `N[C@@H](CS)C(=O)O` [12.1 mg Cys], the Smell entry is listed as “Unpleasant (sulfur)” and the Taste result was “Slightly sweet”.

On to `CC[C@H](C)[C@H](N)C(=O)O` [13.11 mg Ile], for which the Smell result is “Coffee” and the Taste result is listed as “Slightly sweet”.

With `NCCCC[C@H](N)C(=O)O` [14.7 mg Lys], the Smell entry is reported as “Popcorn” and the Taste result was “Slightly sweet”.

Consider `CSCC[C@H](N)C(=O)O` [14.9 mg Met], for which the Smell entry is on record as “Sulfuric” and the Taste result is listed as “Slightly sweet”.

System in a further test: not given
Assay: not given
The following applies: at threshold concentrations; cited from earlier work.
`COc1ccc(CCC(=O)c2c(O)cc(O[C@@H]3O[C@H](CO)[C@@H](O)[C@H](O)[C@H]3O[C@@H]3O[C@@H](C)[C@H](O)[C@@H](O)[C@H]3O)cc2O)cc1O` [NHDC, Neohesperidin dihydrochalcone]: the “times sweeter than sugar at threshold concentrations” value is on record as 1500-1800 times.

The same test, now with this note: compared to sucrose; cited from earlier work.
Turning to `OC[C@@H](O)[C@@H](O)CO` [Erythritol], the “Sweetness by food energy” value is given as 14 and the Sweetness by weight is given as 0.6-0.7.

As for `OCC(O)CO` [Glycerol], the “Sweetness by food energy” value was 0.55 and the Sweetness by weight is recorded as 0.6.

In the case of `CC1(C)[C@@H](O[C@H]2O[C@H](C(=O)O)[C@@H](O)[C@H](O)[C@H]2O[C@@H]2O[C@H](C(=O)O)[C@@H](O)[C@H](O)[C@H]2O)CC[C@]2(C)[C@H]3C(=O)C=C4[C@@H]5C[C@@](C)(C(=O)O)CC[C@]5(C)CC[C@@]4(C)[C@]3(C)CC[C@@H]12` [Glycyrrhizin], the Sweetness by weight was 30-50.

Take `OC[C@H]1O[C@H](OC[C@H]2OC(O)(CO)[C@@H](O)[C@@H]2O)[C@H](O)[C@@H](O)[C@@H]1O` (some centres unmarked) [Isomaltulose]: the Sweetness by weight is reported as 0.5.

For `OC[C@@H](O)[C@@H](O[C@@H]1O[C@H](CO)[C@H](O)[C@H](O)[C@H]1O)[C@H](O)[C@@H](O)CO` [Lactitol], the “Sweetness by food energy” value is recorded as 0.8 and the Sweetness by weight is recorded as 0.4.

For `OC[C@@H](O)[C@@H](O[C@H]1O[C@H](CO)[C@@H](O)[C@H](O)[C@H]1O)[C@H](O)[C@@H](O)CO` [Maltitol], the “Sweetness by food energy” value was 1.7 and the Sweetness by weight was 0.75-0.9.

Turning to `OC[C@@H](O)[C@@H](O)[C@H](O)[C@H](O)CO` [Mannitol], the “Sweetness by food energy” value is 1.2 and the Sweetness by weight is recorded as 0.5.

Take `N[C@@H](C[C@@](O)(Cc1c[nH]c2ccccc12)C(=O)O)C(=O)O` [Monatin]: the Sweetness by weight is given as 3,000.

On to `C[C@@H]1O[C@@H](O[C@H]2O[C@@H]([C@@H](C)C3CC[C@@H]4[C@H]5CC(=O)[C@@H]6C[C@H](O[C@@H]7O[C@H](CO)[C@@H](O)[C@H](O)[C@H]7O[C@@H]7O[C@@H](C)[C@H](O)[C@@H](O)[C@H]7O)CC[C@]6(C)[C@@H]5CC[C@]34C)CC[C@@H]2C)[C@H](O)[C@H](O)[C@H]1O` (some centres unmarked) [Osladin], for which the Sweetness by weight was 500.

Regarding `O=C(CO)[C@H](O)[C@H](O)[C@H](O)CO` [Psicose], the Sweetness by weight is on record as 0.7.

Consider `OC[C@@H](O)[C@@H](O)[C@H](O)[C@@H](O)CO` [Sorbitol], for which the “Sweetness by food energy” value is 0.9 and the Sweetness by weight is on record as 0.6.

`O=C(CO)[C@@H](O)[C@@H](O)[C@H](O)CO` [Tagatose]: the “Sweetness by food energy” value is reported as 2.4 and the Sweetness by weight is on record as 0.92.

Turning to “Brazzein (QDKCKKVYENYPVSKCQLANQCNYDCKLDKHARSGECFYDEKRNLQCICDYCEY; UniProt P56552 1-54, looked up) [Protein]”, the Sweetness by weight is given as 500-2000.

In the case of Curculin, the Sweetness by weight was 430-2070.

Take Inulin: the Sweetness by weight was 0.1.

As to Isomalt, the “Sweetness by food energy” value is 0.9-1.3 and the Sweetness by weight is on record as 0.45-0.65.

With Mabinlin, the Sweetness by weight is given as 100.

Regarding Maltodextrin, the Sweetness by weight is 0.15.

In the case of Monellin, the Sweetness by weight is listed as 800-2,000.

As for Pentadin, the Sweetness by weight is reported as 500.

Take Polydextrose: the Sweetness by weight is given as 0.1.

Still in this test, the particulars now being: relative to sucrose / sugar; the sweetness depends on the tested concentration; cited from earlier work.
With `COC(=O)[C@H](Cc1ccccc1)NC(=O)[C@@H](N)CC(=O)O` [Aspartame] (H-Asp-Phe-OMe), the “times sweeter than sucrose” value is given as 160-200 times.

In the case of `OC[C@@H](O)[C@@H](O)[C@H](O)[C@H](O)CO` [Mannitol], the “times sweeter than sucrose” value is 0.55-0.65 times.

With `C=C1C[C@@]23CC[C@H]4[C@@](C)(CCC[C@@]4(C)C(=O)O[C@@H]4O[C@H](CO)[C@@H](O)[C@H](O)[C@H]4O)[C@@H]2CC[C@]1(O[C@@H]1O[C@H](CO)[C@@H](O)[C@H](O)[C@H]1O)C3` [Rubusoside], the “times sweeter than sucrose” value is 200 times.

In the case of `C[C@H](CC[C@@H](O[C@@H]1O[C@H](CO)[C@@H](O)[C@H](O)[C@H]1O[C@@H]1O[C@H](CO)[C@@H](O)[C@H](O)[C@H]1O)C(C)(C)O)[C@H]1CC[C@@]2(C)[C@H]3CC=C4[C@@H](CC[C@H](O[C@@H]5O[C@H](CO[C@@H]6O[C@H](CO)[C@@H](O)[C@H](O)[C@H]6O)[C@@H](O)[C@H](O)[C@H]5O)C4(C)C)[C@]3(C)[C@H](O)C[C@]12C` [mogroside IV], the “times sweeter than sucrose” value was 126 times.

As for `C[C@H](CC[C@@H](O[C@@H]1O[C@H](CO[C@@H]2O[C@H](CO)[C@@H](O)[C@H](O)[C@H]2O)[C@@H](O)[C@H](O)[C@H]1O[C@@H]1O[C@H](CO)[C@@H](O)[C@H](O)[C@H]1O)C(C)(C)O)[C@H]1CC[C@@]2(C)[C@@H]3CC=C4[C@@H](CC[C@H](O[C@@H]5O[C@H](CO[C@@H]6O[C@H](CO)[C@@H](O)[C@H](O)[C@H]6O)[C@@H](O)[C@H](O)[C@H]5O)C4(C)C)[C@]3(C)[C@H](O)C[C@]12C` [mogroside V], the “times sweeter than sucrose” value is recorded as 256-344 times.

Take `O=S(=O)([O-])NC1CCCCC1.[Na+]` [sodium cyclamate]: the “times sweeter than sucrose” value was “about 30 times”.

In the case of `OC[C@H]1O[C@H](O[C@]2(CCl)O[C@H](CCl)[C@@H](O)[C@@H]2O)[C@H](O)[C@@H](O)[C@H]1Cl` [sucralose], the “times sweeter than sucrose” value is given as “about 600 times”.

The test is the same for the next values; noted with them: result in words; cited from earlier work.
Regarding B1, the “Notes (taste)” value was “A protein that does not taste sweet by itself”.

Still in this test, the particulars now being: weight-for-weight; cited from earlier work.
Consider `COc1ccc(CCC(=O)c2c(O)cc(O[C@@H]3O[C@H](CO)[C@@H](O)[C@H](O)[C@H]3O[C@@H]3O[C@@H](C)[C@H](O)[C@@H](O)[C@H]3O)cc2O)cc1O` [NHDC, Neohesperidin dihydrochalcone], for which the “times sweeter than sugar weight-for-weight” value was “about 340 times”.
